Test results as given in patent US8114902B2, “2-aminobutanol compound and use thereof for medical purposes” (Mitsubishi Tanabe Pharma Corporation, priority 2006, dated 2012).

What was measured:
[1] = Action on heart rate in rat telemetry; format: in vivo, male Sprague-Dawley (IGS) rats; conditions: oral administration in 0.5% hydroxypropylmethylcellulose, up to the dose of 10 mg/kg body weight, heart rate measured from 24 hr before to 72 hr after administration
Experimental: Action on Heart Rate in Rat Telemetry
Male Sprague-Dawley (IGS) rats were anesthetized by intraperitoneal administration of Nembutal (manufactured by DAINIPPON PHARMACEUTICAL CO., LTD.), and a pressure sensor connected to a telemetric transmitter (TL11M2-C50-PTX, manufactured by Data Sciences International) was inserted into the abdominal artery, whereby the transmitter was subcutaneously set in the abdomen. The data of blood pressure and heart rate were recorded by an analysis software (Dataquest A.R.T., Data Sciences International) via a receiver (RPC-1, manufactured by Data Sciences International). After confirmation of the recovery of the circadian rhythm of the heart rate after elapse of 10 days to 2 weeks postoperation, the rats were subjected to the experiment. The compound of the present invention was suspended in 0.5% hydroxypropylmethylcellulose (manufactured by Shin-Etsu Chemical Co., Ltd.) and administered orally. The heart rate was measured from 24 hr before administration to 72 hr after administration.

[2] = test system: mouse peripheral blood lymphocyte count; experiment: Evaluation of mouse peripheral blood lymphocyte count-decreasing effect; format: in vivo, male BALB/cAnNCrj mice; conditions: intraperitoneal administration in 20% cyclodextrin, blood collected 24 hr after administration, flow cytometer count
Experimental: Evaluation of Mouse Peripheral Blood Lymphocyte Count-Decreasing Effect
The compound of the present invention was dissolved or suspended in 20% cyclodextrin (manufactured by NIHON SHOKUHIN KAKO CO., LTD.), and intraperitoneally administered to 7- to 10-week-old male BALB/cAnNCrj mice (Charles River Laboratories Japan, Inc.) at a dose of 0.001-10 mg/kg body weight. At 24 hr after the administration of the compound of the present invention, the peripheral blood (about 0.3 ml) was collected using a tuberculin syringe (manufactured by TERUMO CORPORATION) treated with heparin sodium (manufactured by NovoNordisk) from the postcava of the mice under ether anesthesia. The blood (0.1 ml) was hemolyzed in an automatic hemolysis treatment apparatus (TQ-Prep, manufactured by Beckman Instruments•Coulter) and, using a Flow Cytometer (CYTOMICS FC 500, manufactured by Beckman Instruments•Coulter), the lymphocytes were counted by a gating method using the forward and side scattering of the laser beam as an index and Flow-Count™ Fluorospheres (manufactured by Beckman Instruments•Coulter), which are the standard particles in a known number, as the internal standard. Taking the lymphocyte count of the vehicle group as 100%, the dose necessary for decreasing the lymphocyte count thereof to 50% was calculated and taken as ED50 value (mg/kg body weight).

Row | SMILES | influence on heart rate in rats (telemetry) [1] | mouse peripheral blood lymphocyte count-decreasing effect, ED50 value (dose necessary for decreasing the lymphocyte count to 50% of vehicle group) [2] [mg/kg body weight]
1 | Cc1ccc(Sc2ccc(-c3ccc(CCC(N)(CO)CO)cc3)c(F)c2)cc1 [Example 4, 2-amino-2-{2-[2′-fluoro-4′-(4-methylphenylthio)biphenyl-4-yl]ethyl}propane-1,3-diol] | did not influence the heart rate | 0.05
2 | Cc1ccc(Sc2ccc(-c3ccc(CCC(N)(CO)CO)c(Cl)c3)c(F)c2)cc1 [Example 18, 2-amino-2-{2-[3-chloro-2′-fluoro-4′-(4-methylphenylthio)biphenyl-4-yl]ethyl}propane-1,3-diol] |  | 0.04
